According to ChEMBL document CHEMBL4145625 (J Med Chem, 2018):
pIC50: −log10 of the molar value.

How the values were obtained:
in vivo [1] = details: ICR, mouse, plasma, po, 30 mg/kg
in vivo [2] = details: ICR, mouse, plasma, po, 30 mg/kg; remark: listed apart in the source
U-87 MG = test: cells; format: functional, cell-based, U-87MG ATCC; details: Homo sapiens, 96 h
Description: Cytotoxicity against human U87MG cells after 96 hrs by MTT assay

Cytochrome P450 2C19 = Cytochrome P450 2C19 (Homo sapiens, UniProt P33261)
Description: Inhibition of CYP2C19 in human liver microsomes assessed as reduction in 4-Hydroxymephenytoinn formation using mephenytoin as substrate after 10 to 20 mins in presence of NADPH by LC-MS/MS analysis

[3] = biological target: RAC-alpha serine/threonine-protein kinase (Homo sapiens, UniProt P31749); test: Inhibition of AKT1 (unknown origin) using FAM-labeled peptide as substrate by mobility shift assay
Chain of RAC-alpha serine/threonine-protein kinase (P31749 whole entry): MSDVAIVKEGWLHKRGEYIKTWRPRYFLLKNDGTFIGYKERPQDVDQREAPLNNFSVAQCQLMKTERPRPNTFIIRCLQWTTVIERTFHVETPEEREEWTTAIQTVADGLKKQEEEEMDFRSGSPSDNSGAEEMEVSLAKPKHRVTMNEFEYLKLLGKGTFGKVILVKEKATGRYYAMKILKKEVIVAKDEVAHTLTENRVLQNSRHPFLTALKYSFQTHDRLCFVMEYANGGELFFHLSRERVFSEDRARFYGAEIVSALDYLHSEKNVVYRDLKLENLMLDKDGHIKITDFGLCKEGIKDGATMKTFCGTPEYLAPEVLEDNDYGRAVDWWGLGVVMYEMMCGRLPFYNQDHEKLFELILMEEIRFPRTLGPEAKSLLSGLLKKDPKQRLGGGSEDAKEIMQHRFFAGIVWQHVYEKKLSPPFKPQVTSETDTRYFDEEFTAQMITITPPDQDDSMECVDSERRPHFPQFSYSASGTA

in vivo [4] = details: ICR, mouse, plasma, po, 30 mg/kg; remark: listed apart in the source
in vivo [5] = details: ICR, mouse, plasma, iv, 3 mg/kg
in vivo [6] = details: ICR, mouse, plasma, iv, 3 mg/kg; remark: listed apart in the source
SH-SY5Y = test: cells; format: functional, cell-based; details: Homo sapiens, 96 h
Description: Cytotoxicity against human SH-SY5Y cells after 96 hrs by MTT assay

Cytochrome P450 2E1 = Cytochrome P450 2E1 (Homo sapiens, UniProt P05181)
Chain of Cytochrome P450 2E1 (P05181 whole entry, canonical isoform): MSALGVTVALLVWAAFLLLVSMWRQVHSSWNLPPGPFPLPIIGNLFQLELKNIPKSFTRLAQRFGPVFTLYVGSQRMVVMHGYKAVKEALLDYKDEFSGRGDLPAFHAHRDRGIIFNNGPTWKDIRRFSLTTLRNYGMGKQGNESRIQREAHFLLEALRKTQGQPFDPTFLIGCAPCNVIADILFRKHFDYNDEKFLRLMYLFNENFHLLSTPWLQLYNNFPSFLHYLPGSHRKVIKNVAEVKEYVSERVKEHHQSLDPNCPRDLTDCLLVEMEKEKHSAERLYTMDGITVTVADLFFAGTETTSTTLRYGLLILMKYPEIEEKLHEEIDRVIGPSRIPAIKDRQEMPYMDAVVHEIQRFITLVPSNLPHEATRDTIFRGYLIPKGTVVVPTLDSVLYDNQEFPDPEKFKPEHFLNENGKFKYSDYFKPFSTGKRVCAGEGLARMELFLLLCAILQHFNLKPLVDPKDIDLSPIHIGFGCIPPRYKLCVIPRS
Description: Inhibition of CYP2E1 in human liver microsomes assessed as reduction in 6-Hydroxychlorzoxazone formation using chlorzoxazone as substrate after 10 to 20 mins in presence of NADPH by LC-MS/MS analysis

[7] = biological target: T1, Phosphatidylinositol 4,5-bisphosphate 3-kinase catalytic subunit delta isoform (Homo sapiens, UniProt O00329); test: Inhibition of PI3Kdelta (unknown origin) using PIP2 as substrate by ADP-Glo assay
T1 sequence (O00329 whole entry): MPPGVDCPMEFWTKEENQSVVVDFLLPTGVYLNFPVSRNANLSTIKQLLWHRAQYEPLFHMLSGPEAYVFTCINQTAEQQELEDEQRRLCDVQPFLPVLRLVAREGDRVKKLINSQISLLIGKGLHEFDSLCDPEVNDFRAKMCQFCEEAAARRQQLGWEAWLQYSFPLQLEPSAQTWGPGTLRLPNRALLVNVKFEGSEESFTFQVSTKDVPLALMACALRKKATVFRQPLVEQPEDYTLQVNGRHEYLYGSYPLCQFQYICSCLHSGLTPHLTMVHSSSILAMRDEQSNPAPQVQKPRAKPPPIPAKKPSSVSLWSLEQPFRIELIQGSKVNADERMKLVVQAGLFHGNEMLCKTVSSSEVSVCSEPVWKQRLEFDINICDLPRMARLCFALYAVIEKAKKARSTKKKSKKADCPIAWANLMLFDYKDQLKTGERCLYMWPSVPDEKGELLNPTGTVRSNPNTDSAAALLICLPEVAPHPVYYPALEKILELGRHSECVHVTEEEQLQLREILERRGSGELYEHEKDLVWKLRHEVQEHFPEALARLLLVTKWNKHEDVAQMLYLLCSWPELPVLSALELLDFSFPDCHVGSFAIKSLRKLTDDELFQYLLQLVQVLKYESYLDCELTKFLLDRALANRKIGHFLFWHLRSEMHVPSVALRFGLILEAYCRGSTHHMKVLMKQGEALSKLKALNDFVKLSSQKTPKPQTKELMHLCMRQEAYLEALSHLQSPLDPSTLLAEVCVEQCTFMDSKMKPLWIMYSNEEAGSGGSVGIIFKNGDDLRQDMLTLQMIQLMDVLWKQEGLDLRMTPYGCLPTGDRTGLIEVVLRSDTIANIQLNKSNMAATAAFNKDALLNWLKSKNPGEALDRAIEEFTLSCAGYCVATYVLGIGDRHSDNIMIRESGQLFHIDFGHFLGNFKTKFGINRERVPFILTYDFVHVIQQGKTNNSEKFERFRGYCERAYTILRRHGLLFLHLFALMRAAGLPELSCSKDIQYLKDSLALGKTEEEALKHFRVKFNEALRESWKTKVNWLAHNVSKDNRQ

T98G = test: cells; format: functional, cell-based; details: Homo sapiens, 96 h
Description: Cytotoxicity against human T98G cells after 96 hrs by MTT assay

in vivo [8] = details: ICR, mouse, plasma, po, 30 mg/kg; remark: listed apart in the source
in vivo [9] = details: ICR, mouse, plasma, po, 30 mg/kg; remark: listed apart in the source
in vivo [10] = details: ICR, mouse, plasma, iv, 3 mg/kg; remark: listed apart in the source
Description: Half life in ICR mouse plasma at 3 mg/kg, iv by LC/MS/MS analysis

[11] = mouse, in vivo, po, 30 mg/kg
in vivo [12] = details: ICR, mouse, plasma, iv, 3 mg/kg; remark: listed apart in the source
Description: Volume of distribution at steady state in ICR mouse plasma at 3 mg/kg, iv by LC/MS/MS analysis

in vivo [13] = details: ICR, mouse, plasma, iv, 3 mg/kg; remark: listed apart in the source
[14] = biological target: Serine/threonine-protein kinase mTOR (Homo sapiens, UniProt P42345); test: Inhibition of mTOR (unknown origin) using ULight-4E-BP1 peptide as substrate after 30 mins by Lance Ultra assay
DU-145 = test: cells; format: functional, cell-based; details: Homo sapiens, DU-145, 96 h
Description: Cytotoxicity against human DU145 cells after 96 hrs by MTT assay

in vivo [15] = details: ICR, mouse, plasma, po, 30 mg/kg; remark: listed apart in the source
Description: Half life in ICR mouse plasma at 30 mg/kg, po by LC/MS/MS analysis

Cytochrome P450 2D6 = Cytochrome P450 2D6 (Homo sapiens, UniProt P10635)
Chain of Cytochrome P450 2D6 (P10635 whole entry): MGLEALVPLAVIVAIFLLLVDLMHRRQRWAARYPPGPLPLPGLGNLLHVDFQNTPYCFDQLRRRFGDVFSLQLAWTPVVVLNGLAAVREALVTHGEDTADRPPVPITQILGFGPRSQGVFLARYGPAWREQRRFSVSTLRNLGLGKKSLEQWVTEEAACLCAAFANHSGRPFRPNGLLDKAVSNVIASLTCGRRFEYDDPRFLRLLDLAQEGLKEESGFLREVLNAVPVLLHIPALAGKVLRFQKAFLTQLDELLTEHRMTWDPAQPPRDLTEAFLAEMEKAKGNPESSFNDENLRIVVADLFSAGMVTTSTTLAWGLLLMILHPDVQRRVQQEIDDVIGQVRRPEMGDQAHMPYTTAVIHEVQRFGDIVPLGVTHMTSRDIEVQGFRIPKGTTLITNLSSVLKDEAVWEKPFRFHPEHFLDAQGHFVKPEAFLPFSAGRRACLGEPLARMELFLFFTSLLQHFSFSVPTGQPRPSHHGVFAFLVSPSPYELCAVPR
Description: Inhibition of CYP2D6 in human liver microsomes assessed as reduction in dextrophan formation using detromethorphann as substrate after 10 to 20 mins in presence of NADPH by LC-MS/MS analysis

Cytochrome P450 1A2 = biological target: T2, Cytochrome P450 1A2 (Homo sapiens, UniProt P05177)
T2 sequence (P05177 whole entry): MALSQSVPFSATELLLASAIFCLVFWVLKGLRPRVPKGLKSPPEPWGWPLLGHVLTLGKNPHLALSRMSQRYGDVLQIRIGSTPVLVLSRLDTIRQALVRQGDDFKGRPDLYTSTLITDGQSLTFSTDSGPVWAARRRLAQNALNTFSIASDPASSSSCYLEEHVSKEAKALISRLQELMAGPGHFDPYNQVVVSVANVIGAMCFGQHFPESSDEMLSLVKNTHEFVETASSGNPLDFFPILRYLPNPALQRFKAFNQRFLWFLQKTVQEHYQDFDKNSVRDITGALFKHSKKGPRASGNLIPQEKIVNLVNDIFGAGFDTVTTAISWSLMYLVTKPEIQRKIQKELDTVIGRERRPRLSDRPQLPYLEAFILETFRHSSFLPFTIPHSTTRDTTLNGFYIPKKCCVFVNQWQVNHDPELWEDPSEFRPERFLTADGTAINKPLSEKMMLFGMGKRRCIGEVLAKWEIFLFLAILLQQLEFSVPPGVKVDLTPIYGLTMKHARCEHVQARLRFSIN
Description: Inhibition of CYP1A2 in human liver microsomes assessed as reduction in acetaminophen formation using phenacetin as substrate after 10 to 20 mins in presence of NADPH by LC-MS/MS analysis

A549 = test: cells; format: functional, cell-based; details: Homo sapiens, A549, 96 h
Description: Cytotoxicity against human A549 cells after 96 hrs by MTT assay

Cytochrome P450 3A4 = Cytochrome P450 3A4 (Homo sapiens, UniProt P08684)
Chain of Cytochrome P450 3A4 (P08684 whole entry): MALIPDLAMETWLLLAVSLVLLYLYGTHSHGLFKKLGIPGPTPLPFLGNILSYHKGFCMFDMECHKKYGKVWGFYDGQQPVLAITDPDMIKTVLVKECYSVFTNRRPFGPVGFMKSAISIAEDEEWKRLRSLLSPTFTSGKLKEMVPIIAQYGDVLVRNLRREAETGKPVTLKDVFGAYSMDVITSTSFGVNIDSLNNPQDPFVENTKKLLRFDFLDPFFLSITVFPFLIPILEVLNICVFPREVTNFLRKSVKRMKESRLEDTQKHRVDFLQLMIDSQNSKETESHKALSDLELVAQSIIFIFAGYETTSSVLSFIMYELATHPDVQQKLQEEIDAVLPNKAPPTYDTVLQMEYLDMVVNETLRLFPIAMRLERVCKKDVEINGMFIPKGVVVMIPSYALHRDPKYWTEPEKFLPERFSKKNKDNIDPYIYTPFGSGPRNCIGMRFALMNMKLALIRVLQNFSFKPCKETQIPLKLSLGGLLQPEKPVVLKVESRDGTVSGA
Description: Inhibition of CYP3A4 in human liver microsomes assessed as reduction in 1-Hydroxymidazolam formation using midazolam as substrate after 10 to 20 mins in presence of NADPH by LC-MS/MS analysis

MDA-MB-231 = test: cells; format: functional, cell-based; details: Homo sapiens, MDA-MB-231, 96 h
Description: Cytotoxicity against human MDA-MB-231 cells after 96 hrs by MTT assay

in vivo [16] = details: ICR, mouse, plasma, iv, 3 mg/kg; remark: listed apart in the source
[17] = biological target: Voltage-gated inwardly rectifying potassium channel KCNH2 (Homo sapiens, UniProt Q12809)
Chain of Voltage-gated inwardly rectifying potassium channel KCNH2 (Q12809 whole entry): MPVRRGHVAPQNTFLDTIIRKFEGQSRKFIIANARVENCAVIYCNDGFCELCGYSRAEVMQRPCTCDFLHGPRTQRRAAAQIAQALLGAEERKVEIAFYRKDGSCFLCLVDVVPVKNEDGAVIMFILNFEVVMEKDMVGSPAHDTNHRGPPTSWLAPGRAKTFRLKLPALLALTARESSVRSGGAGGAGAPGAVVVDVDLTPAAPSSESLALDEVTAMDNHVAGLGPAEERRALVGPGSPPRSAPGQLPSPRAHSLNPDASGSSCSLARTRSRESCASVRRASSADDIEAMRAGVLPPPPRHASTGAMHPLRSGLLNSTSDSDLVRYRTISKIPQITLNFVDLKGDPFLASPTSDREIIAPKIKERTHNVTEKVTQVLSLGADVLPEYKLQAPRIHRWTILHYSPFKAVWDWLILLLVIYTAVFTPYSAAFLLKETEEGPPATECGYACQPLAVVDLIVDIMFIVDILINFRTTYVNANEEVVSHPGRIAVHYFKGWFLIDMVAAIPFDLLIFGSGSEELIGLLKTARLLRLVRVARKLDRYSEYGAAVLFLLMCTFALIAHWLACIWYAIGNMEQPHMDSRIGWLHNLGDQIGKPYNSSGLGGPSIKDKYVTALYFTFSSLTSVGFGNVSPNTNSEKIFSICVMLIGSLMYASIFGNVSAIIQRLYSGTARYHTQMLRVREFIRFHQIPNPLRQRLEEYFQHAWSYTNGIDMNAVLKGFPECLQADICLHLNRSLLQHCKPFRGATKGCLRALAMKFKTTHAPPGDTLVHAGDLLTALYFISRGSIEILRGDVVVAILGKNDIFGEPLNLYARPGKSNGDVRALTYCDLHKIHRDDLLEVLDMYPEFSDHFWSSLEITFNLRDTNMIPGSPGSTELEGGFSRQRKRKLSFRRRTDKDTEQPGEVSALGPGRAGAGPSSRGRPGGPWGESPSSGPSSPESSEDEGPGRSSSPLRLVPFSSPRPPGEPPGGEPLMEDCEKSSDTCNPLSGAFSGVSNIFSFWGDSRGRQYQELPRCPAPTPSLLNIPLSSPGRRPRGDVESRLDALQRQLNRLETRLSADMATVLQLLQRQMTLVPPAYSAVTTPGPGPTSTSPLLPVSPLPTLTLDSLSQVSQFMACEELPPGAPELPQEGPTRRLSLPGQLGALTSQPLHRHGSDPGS
Description: Inhibition of human ERG expressed in CHO cell membranes by patch clamp method

U-251 = test: cells; format: functional, cell-based; details: Homo sapiens, U-251, 96 h
Description: Cytotoxicity against human U251 cells after 96 hrs by MTT assay

Chain of Cytochrome P450 2C19 (P33261 whole entry): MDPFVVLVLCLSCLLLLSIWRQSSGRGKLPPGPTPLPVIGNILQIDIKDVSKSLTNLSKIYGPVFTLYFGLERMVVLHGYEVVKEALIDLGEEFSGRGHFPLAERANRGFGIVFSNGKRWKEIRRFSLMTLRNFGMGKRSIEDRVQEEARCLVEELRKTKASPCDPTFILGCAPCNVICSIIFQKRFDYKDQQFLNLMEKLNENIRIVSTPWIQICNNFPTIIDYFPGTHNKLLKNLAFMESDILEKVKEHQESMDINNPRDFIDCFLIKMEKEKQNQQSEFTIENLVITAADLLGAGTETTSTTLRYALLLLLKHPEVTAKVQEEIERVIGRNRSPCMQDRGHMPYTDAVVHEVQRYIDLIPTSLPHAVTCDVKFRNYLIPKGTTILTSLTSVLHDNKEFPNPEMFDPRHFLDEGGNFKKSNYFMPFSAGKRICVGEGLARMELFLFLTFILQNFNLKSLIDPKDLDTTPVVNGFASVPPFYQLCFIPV

`CNc1nc(C)c2cc(-c3cnc(OC)c(NS(=O)(=O)c4ccc(F)cc4F)c3)cc(OC3CCOCC3)c2n1` gave an AUC(0-inf) (in vivo [1]) of 16100 ng·h/mL, a bioavailability (in vivo [2]) of 44.4% and a pIC50 (U-87 MG) of 6.60. For the same molecule, the pIC50 (Cytochrome P450 2C19) was less than 5.00, the pIC50 [3] was less than 5.00 and the AUC(0-t) (in vivo [4]) was 15500 ng·h/mL. For the same molecule, the Cmax (in vivo [5]) was 7720 ng/mL, the AUC(0-inf) (in vivo [6]) was 3500 ng·h/mL and the pIC50 (SH-SY5Y) was 6.29. For the same molecule, the pIC50 (Cytochrome P450 2E1) was less than 5.00, the pIC50 [7] was 9.46 and the pIC50 (T98G) was 6.41. The Tmax (in vivo [8]) was 10.8 min, the Cmax (in vivo [9]) was 12800 ng/mL and the half-life (in vivo [10]) was 37.2 min. It also gave an AUCt [11] of 895 ng·h/g, a Vd (in vivo [12]) of 0.763 L/kg and an AUC(0-t) (in vivo [13]) of 3480 ng·h/mL. For the same molecule, the pIC50 [14] was 7.37, the pIC50 (DU-145) was 5.28 and the half-life (in vivo [15]) was 255 min. The pIC50 (Cytochrome P450 2D6) was less than 5.00, the pIC50 (Cytochrome P450 1A2) was less than 5.00 and the pIC50 (A549) was 6.96. The pIC50 (Cytochrome P450 3A4) was less than 5.00, the pIC50 (MDA-MB-231) was 6.59 and the Tmax (in vivo [16]) was 3 min. It also gave a pIC50 [17] of less than 5.00 and a pIC50 (U-251) of 6.15.

With `COc1ncc(-c2cc(O[C@@H]3CCOC3)c3nc(N)nc(C)c3c2)cc1NS(=O)(=O)c1ccc(F)cc1F` the AUC(0-inf) (in vivo [1]) was 9040 ng·h/mL, the bioavailability (in vivo [2]) was 96.2% and the pIC50 (U-87 MG) was 6.59. It also gave a pIC50 (Cytochrome P450 2C19) of less than 5.00, a pIC50 [3] of less than 5.00 and an AUC(0-t) (in vivo [4]) of 8690 ng·h/mL. The Cmax (in vivo [5]) was 1580 ng/mL, the AUC(0-inf) (in vivo [6]) was 911 ng·h/mL and the pIC50 (SH-SY5Y) was 6.02. The pIC50 (Cytochrome P450 2E1) was less than 5.00, the pIC50 [7] was 9.64 and the pIC50 (T98G) was 6.55. For the same molecule, the Tmax (in vivo [8]) was 4.8 min, the Cmax (in vivo [9]) was 8830 ng/mL and the half-life (in vivo [10]) was 32.4 min. For the same molecule, the AUCt [11] was 28.6 ng·h/g, the Vd (in vivo [12]) was 2.57 L/kg and the AUC(0-t) (in vivo [13]) was 904 ng·h/mL. The pIC50 [14] was 8.00, the pIC50 (DU-145) was 5.68 and the half-life (in vivo [15]) was 281 min. The pIC50 (Cytochrome P450 2D6) was less than 5.00, the pIC50 (Cytochrome P450 1A2) was less than 5.00 and the pIC50 (A549) was 7.08. For the same molecule, the pIC50 (Cytochrome P450 3A4) was less than 5.00, the pIC50 (MDA-MB-231) was 6.52 and the Tmax (in vivo [16]) was 1.8 min. The pIC50 [17] was less than 5.00 and the pIC50 (U-251) was 6.85.

For `CNc1nc(C)c2cc(-c3cnc(OC)c(NS(=O)(=O)c4ccc(F)cc4F)c3)cc(O[C@@H]3CCOC3)c2n1`, the AUC(0-inf) (in vivo [1]) was 17100 ng·h/mL, the bioavailability (in vivo [2]) was 78.4% and the pIC50 (U-87 MG) was 6.40. For the same molecule, the pIC50 (Cytochrome P450 2C19) was less than 5.00, the pIC50 [3] was less than 5.00 and the AUC(0-t) (in vivo [4]) was 11400 ng·h/mL. It also gave a Cmax (in vivo [5]) of 2620 ng/mL, an AUC(0-inf) (in vivo [6]) of 1460 ng·h/mL and a pIC50 (SH-SY5Y) of 5.89. The pIC50 (Cytochrome P450 2E1) was less than 5.00, the pIC50 [7] was 9.43 and the pIC50 (T98G) was 6.39. It also gave a Tmax (in vivo [8]) of 15 min, a Cmax (in vivo [9]) of 5390 ng/mL and a half-life (in vivo [10]) of 31.8 min. For the same molecule, the AUCt [11] was 742 ng·h/g, the Vd (in vivo [12]) was 1.56 L/kg and the AUC(0-t) (in vivo [13]) was 1450 ng·h/mL. The pIC50 [14] was 7.25, the pIC50 (DU-145) was 5.19 and the half-life (in vivo [15]) was 972 min. The pIC50 (Cytochrome P450 2D6) was less than 5.00, the pIC50 (Cytochrome P450 1A2) was less than 5.00 and the pIC50 (A549) was 6.92. The pIC50 (Cytochrome P450 3A4) was less than 5.00, the pIC50 (MDA-MB-231) was 6.32 and the Tmax (in vivo [16]) was 1.8 min. The pIC50 [17] was less than 5.00 and the pIC50 (U-251) was 6.34.
